From US20220062258A1, “Heterocyclic derivatives” (Merck Patent GmbH, priority 2019, published 2022)

How the values were obtained:
Assay type in all cases: cell-based
[1] = tested on: HUVEC primary endothelial cells; test: HUVEC proliferation assay (CyQUANT Direct); settings: Homo sapiens, 72 h, 3 days incubation
Method: HUVEC Proliferation Assay
Proliferation of HUVEC primary endothelial cells was used as cell-based mechanistical assay.^25 Applying the CyQUANT@ Direct Cell Proliferation Assay (Invitrogen C35011) which is based on a cell-permeant fluorescent DNA-binding dye, DNA content is used as a direct measure for cell number. Pooled HUVEC cells (Promocell C-12203) are cultivated in the medium supplied by Promocell (Cat No C-22020) for maximum 4 passages. For the assay 500 cells/well are seeded into black 384-well culture plates with clear bottom in 70 μl culture medium and incubated for 6 hours at 37° C., 5% CO2. 10 μl prediluted test compounds are added and cells incubated for 3 days at 37° C., 5% CO2 before measurement of DNA content. CyQUANT detection reagent is prepared according to the manufacturers protocol, 20 μl/well added and incubated at 37° C., 5% CO2 for at least 1 h before measurement of fluorescence at Envision multimode reader (Perkin-Elmer, Waltham) with excitation 480 nm and emission 535 nm (bottom read mode). The assay is performed as dose response with 10 compound dilutions. Inhibitory values (IC50) were determined using the program ASSAY ANALYZER® from GeneData (Basel, Switzerland).

MetAP-2 [2] = molecular target: T1, MetAP-2 (Homo sapiens, UniProt P50579); test: Degradation of MetAP-2 in HCT116 cells (Western blot, MetAp2/GAPDH signal); set-up: endogenous in cells; host or cells: HCT116; settings: for Signal MetAp2/GAPDH normalized to untreated (DMSO): 24 hrs, HTC116 cells, <1 means degradation; for reduction of MetAP-2 protein: after 24 h
Method: See scans below. […] The initial MetAP-2 degradation results were obtained after 24 h incubation of the compounds in three different concentrations (0.1; 1; 10 μM), cell lysis, SDS-PAGE separation, blotting and antibody aided detection.
Comparison of MetAP2 protein levels in HTC116 cells after compound treatments at different concentrations and time points. As control, DMSO was used and its values set as “1”. MetAp2 values <1 means degradation.
2. Exemplary Testing of the Compound
HCT116 cells were sown in 6-well plates. Pipette 1 mL fresh medium to every well and incubate for at least 1 h (37° C., 5% CO2, 95% rH).
Harvest and count cells in Vi-Cell. Equinr. 70198475 Adjust cell concentration to 0.35e^6 cells/mL and add 1 mL of cell suspension (total 0,35e^6 cells/well).
Incubate cells for 24 hours (37° C., 5% CO2, 95% rH)
HCT116: 24 h: ˜50% confluent before treatment
Compounds will be thawed the first time, stock: 10 mM; final concentration: 10 μM & 1 μM & 0.1 μM
Treatment with DMSO based solution with Digital Dispenser: HCT116 platte 2A1.jpg_meta.xml • create new dispensing protocol for compound • apply name of test compound and its stock concentration (in mM) for testing • 3×1:10 dilution series • final 0.3% DMSO, DMSO normalization for every well • shaking after compound/DMSO addition
Incubate cells for further 24 hours (37° C., 5% C02, 95% rH)
HCT116: 70-80% confluent before lysis • after incubation cells were lysed with RIPA lysis buffer including Halt™
all steps performed on ice or at 4° C. • aspirate supernatant from cells • wash cells twice with 2.0 mL ice cold PBS buffer • aspirate supernatant from cells after each washing step • lyse cells with 100 μL Ripa lysis buffer per well • scrape cells with cell scraper and transfer lysates to Eppendorf Cups • incubate for 15 min on ice • centrifuge […] at 13000×g and 4° C. • transfer supernatants to fresh Eppendorf cups • removal of 20 μL lysate for BCA assay • aliquot and freeze at −20° C.
Determination of protein concentration of lysates with BCA Protein Assay Kit. BSA supplied with the kit is 2 mg/mL.
Dilute the standard (Stock BSA concentration=2 mg/mL) in a 96 well plate: Samples were run 1:4. Dilute in lysing buffer, lysing buffer alone was run to determine the background from detergents in the assay.
BCA reagent: Dilute Reagent A and Reagent B in a 1:50 ratio. To 9.8 mL A add 200 μL B.
Assay Procedure: Pipette 5 μL/well of standard or samples to 96 wells (see plate layout). Samples were run in duplicate. Blanks=5 μL/well PBS or 5 μL/well lysing buffer. Add 100 μL/well of the prepared BCA reagent. Tap plate to mix or shake for 1-2 min on the Eppendorf mixer. Incubate at 37° C. for 30 min.
Read the OD at 562 nm. Plate was read on EnVision 2104 Multilabel Reader (Perkin Elmer, Equipment Number 70160330) last verification of instrument 17.08.2017 (once a year) (A25/531). AEH181012_BCA.csv
In EXCEL the duplicates were averaged and the average background PBS was subtracted for the standard curve.
A trend line was created, the intercept (b) was set at 0. The R^2 should be >0.950 for acceptable results. The lysate buffer blank was subtracted from the test values and the averaged, background-corrected O.D. values were used with the equation to calculate mg/ml and then were corrected for the dilution factor for the final mg/mL value. Only results from OD values within the range of the standard curve are acceptable. Values outside of the standard curve range are ignored. BCA AEH00350 Berechnung.xlsx
6. Sample Calculation and Preparation • thaw lysates of AEH00350 on ice • calculate sample volume for Western Blot loading 10 μg total protein/13 μL per slot: • dilute samples with lysis buffer and 10× reducing agent & 4×LDS buffer to 10 μg. • heat them at 70° C. for 10 min and 1000 rmp
7. […]

MetAP-2 [3] = molecular target: T1, MetAP-2; test: as above; set-up: endogenous in cells; host or cells: HCT116; settings: for Signal MetAp2/GAPDH normalized to untreated (DMSO): HTC116 cells, <1 means degradation

T1 sequence (P50579 whole entry): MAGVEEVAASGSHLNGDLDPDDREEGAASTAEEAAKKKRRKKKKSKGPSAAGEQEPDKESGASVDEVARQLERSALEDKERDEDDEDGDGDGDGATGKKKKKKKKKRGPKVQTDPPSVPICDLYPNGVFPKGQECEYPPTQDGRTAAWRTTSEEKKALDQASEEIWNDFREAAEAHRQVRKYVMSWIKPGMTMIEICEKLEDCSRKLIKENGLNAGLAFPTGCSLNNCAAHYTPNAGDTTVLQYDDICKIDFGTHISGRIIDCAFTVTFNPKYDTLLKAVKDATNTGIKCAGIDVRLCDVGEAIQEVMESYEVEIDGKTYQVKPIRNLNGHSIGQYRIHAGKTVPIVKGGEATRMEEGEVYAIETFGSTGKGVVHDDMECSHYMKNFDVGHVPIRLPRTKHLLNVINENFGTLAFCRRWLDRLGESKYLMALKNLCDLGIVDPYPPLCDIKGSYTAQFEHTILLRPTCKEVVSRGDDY

## O=C1CCC(N2C(=O)c3cccc(NCCOCCOCCOCCOCCOCCNC(=O)c4cc5cc(N6CCC(O)(C(=O)NCc7cc(F)cc(F)c7)C6=O)ccc5[nH]4)c3C2=O)C(=O)N1 (centres unmarked) [Compound A1, 5-[3-[(3,5-difluorophenyl)methylcarbamoyl]-3-hydroxy-2-oxo-pyrrolidin-1-yl]-N-[2-[2-[2-[2-[2-[2-[[2-(2,6-dioxo-3-piperidyl)-1,3-dioxo-isoindolin-4-yl]amino]ethoxy]ethoxy]ethoxy]ethoxy]ethoxy]ethyl]-1H-indole-2-carboxamide]
[1]
  IC50: 25 µM
MetAP-2 [2]; 0.1 μM
  Signal MetAp2/GAPDH normalized to untreated (DMSO): 0.7
  reduction of MetAP-2 protein: 30%
MetAP-2 [2]; 1 μM
  Signal MetAp2/GAPDH normalized to untreated (DMSO): 0.6
MetAP-2 [2]; 10 μM
  Signal MetAp2/GAPDH normalized to untreated (DMSO): 0.3
  reduction of MetAP-2 protein: 70%
MetAP-2 [3]; 0.1 μM, 6 hrs
  Signal MetAp2/GAPDH normalized to untreated (DMSO): 1.3
MetAP-2 [3]; 1 μM, 6 hrs
  Signal MetAp2/GAPDH normalized to untreated (DMSO): 0.9
MetAP-2 [3]; 1 μM, 48 hrs
  Signal MetAp2/GAPDH normalized to untreated (DMSO): 1.2
MetAP-2 [3]; 1 μM, after 6 h
  reduction of MetAP-2 protein: 15%
MetAP-2 [3]; 1 μM, after 24 h
  reduction of MetAP-2 protein: 40%
MetAP-2 [3]; 10 μM, 6 hrs
  Signal MetAp2/GAPDH normalized to untreated (DMSO): 0.9
MetAP-2 [3]; 10 μM, 48 hrs
  Signal MetAp2/GAPDH normalized to untreated (DMSO): 0.3
MetAP-2 [3]; 10 μM, after 6 h
  reduction of MetAP-2 protein: 10%
MetAP-2 [3]; 10 μM, after 48 h
  reduction of MetAP-2 protein: 70%

## O=C1CCC(N2C(=O)c3ccc(NCCOCCOCCOCCOCCNC(=O)c4cc5cc(N6CCC(O)(C(=O)NCc7cc(F)cc(F)c7)C6=O)ccc5[nH]4)cc3C2=O)C(=O)N1 (centres unmarked) [Compound A2, 5-[3-[(3,5-difluorophenyl)methylcarbamoyl]-3-hydroxy-2-oxo-pyrrolidin-1-yl]-N-[2-[2-[2-[2-[2-[[2-(2,6-dioxo-3-piperidyl)-1,3-dioxo-isoindolin-5-yl]amino]-ethoxy]ethoxy]ethoxy]ethoxy]ethyl]-1H-indole-2-carboxamide]
[1]
  IC50: 30 µM
MetAP-2 [2]; 0.1 μM
  Signal MetAp2/GAPDH normalized to untreated (DMSO): 1.2
MetAP-2 [2]; 1 μM
  Signal MetAp2/GAPDH normalized to untreated (DMSO): 1.0
MetAP-2 [2]; 10 μM
  Signal MetAp2/GAPDH normalized to untreated (DMSO): 0.6
  reduction of MetAP-2 protein: 40%
MetAP-2 [3]; 0.1 μM, 6 hrs
  Signal MetAp2/GAPDH normalized to untreated (DMSO): 1.3
MetAP-2 [3]; 1 μM, 6 hrs
  Signal MetAp2/GAPDH normalized to untreated (DMSO): 1.6
MetAP-2 [3]; 1 μM, 48 hrs
  Signal MetAp2/GAPDH normalized to untreated (DMSO): 1.5
MetAP-2 [3]; 10 μM, 6 hrs
  Signal MetAp2/GAPDH normalized to untreated (DMSO): 1.1
MetAP-2 [3]; 10 μM, 48 hrs
  Signal MetAp2/GAPDH normalized to untreated (DMSO): 0.8
MetAP-2 [3]; 10 μM, after 48 h
  reduction of MetAP-2 protein: 20%
